Tested on: H2-producing C. reinhardtii cultures
Assay: H2 gas collection from H2-producing sulfur-deprived cultures after inhibitor addition
Format: cell-based, Chlamydomonas reinhardtii
Conditions: inhibitor added to H2-producing sulfur-depleted cultures
Excerpt: Culture bottles (Schott or Roux type) were fitted with an #25 Ace thread and smaller side-ports for liquid sampling. A threaded glass stopper with capillaries for gas sampling was fitted with a Viton O-ring and used to seal the reactor. Threaded side-arm and gas sampling ports were sealed with rubber laminated Teflon septa. Teflon tubing (Aminco, HPLC), attached to one of the gas ports, was used to conduct gas evolved by the algae in the culture bottles to an upside-down graduated cylinder filled with H2O. The gas collection tubing was detached from the culture bottle during liquid and gas sampling to avoid disturbance of gas volume readings in the graduated cylinder.
We, thus, conclude that most of the reductants for H2 production are generated by residual water oxidation activity in sulfur-depleted C. reinhardtii cultures, but that an endogenous substrate may also contribute electrons for the process.

SMILES	rate of H2 gas collection relative to its initial value (% of initial value)	inhibition of H2 gas collection
CN(C)C(=O)Nc1ccc(Cl)c(Cl)c1 [DCMU]	about 20%	
CC1=C(Br)C(=O)C(C(C)C)=C(Br)C1=O [DBMIB]		Total inhibition

From patent publication US6989252B2, “Hydrogen production using hydrogenase-containing oxygenic photosynthetic organisms” (Midwest Research Institute, priority 1999, dated 2006)
